This is an account of results in patent US11034692B1 (Genentech, Inc., priority 2017, dated 2021).

One experiment has as its target HPK1. The experiment can be described thus: HPK1 Lantha Binding Assay ("Lanth"). The note with it: Table B1-1, read-out: HPK1 Ki (μM) (Lanth). In outline:
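Compounds in an 11-point 5-fold series were preincubated 1 h at 23 C with 2 nM kinase plus 2 nM Eu-anti-GST antibody. Then 15 nM Tracer222 was added for another hour, and time-resolved FRET was read at 665/615 nm. Ki values come from a Morrison tight-binding model that uses the tracer Kd.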
The Ki is a dissociation constant, usually derived from enzyme kinetics or from competition with a known ligand. Turning to `Cn1cc([C@@H]2C[C@H]2C(=O)Nc2cc3c(Cl)c(-c4cnccc4CCO)nc(N)c3cn2)cn1` [Compound 333, (1R,2R)—N-(8-amino-5-chloro-6-(4-(2-hydroxyethyl)pyridin-3-yl)-2,7-naphthyridin-3-yl)-2-(1-methyl-1H-pyrazol-4-yl)cyclopropanecarboxamide], the Ki worked out at 0.432 nM. `Cc1ccccc1-c1cc2cc(NC(=O)[C@@H]3C[C@H]3c3cnn(C)c3)ncc2c(N)n1` [Compound 298, (1R,2R)—N-[8-amino-6-(2-methylphenyl)-2,7-naphthyridin-3-yl]-2-(1-methyl-1H-pyrazol-4-yl)cyclopropane-1-carboxamide]: the Ki stood at 0.932 nM. On the same count and under the same terms, the result for `CCc1ccncc1-c1cc2cc(Nc3cn[nH]c3)ncc2c(N)n1` [Compound 75, 3-(4-Ethylpyridin-3-yl)-N6-(1H-pyrazol-4-yl)-[2,7]naphthyridine-1,6-diamine] reads 0.8 nM; that for `Cc1ccncc1-c1cc2cc(NC(=O)[C@H]3C[C@]34CCNC(=O)C4)ncc2c(N)n1` [Compound 313, (1S,3R)—N-[8-amino-6-(4-methylpyridin-3-yl)-2,7-naphthyridin-3-yl]-5-oxo-6-azaspiro[2.5]octane-1-carboxamide], 0.02 nM. For the molecule `Cc1cc2c(cc1-c1cc3cc(NC(=O)[C@H]4C[C@@H]4C#N)ncc3c(N)n1)C(O)C(=O)N2` (relative stereo) [Compound 160, trans-N-[8-amino-6-(3-hydroxy-6-methyl-2-oxo-indolin-5-yl)-2,7-naphthyridin-3-yl]-2-cyano-cyclopropanecarboxamide], the Ki worked out at 1.2 nM.

Take `Cc1ccncc1-c1nc(N)c2cnc(NC(=O)[C@@H]3C[C@H]3c3cnn(C)c3)cc2c1Cl` [Compound 234, (1R,2R)—N-(8-amino-5-chloro-6-(4-methylpyridin-3-yl)-2,7-naphthyridin-3-yl)-2-(1-methyl-1H-pyrazol-4-yl)cyclopropanecarboxamide]: the Ki worked out at 0.078 nM. On to `Cn1cc([C@H]2C[C@@H]2C(=O)Nc2cc3cc(-c4c(F)cccc4F)nc(N)c3cn2)cn1` (stereo in doubt) [Compound 306, (1S,2S)—N-[8-amino-6-(2,6-difluorophenyl)-2,7-naphthyridin-3-yl]-2-(1-methyl-1H-pyrazol-4-yl)cyclopropane-1-carboxamide], for which the inhibition constant Ki is 3.25 nM. Take `Cc1ccncc1-c1nc(N)c2cnc(NC(=O)[C@H]3C[C@@H]3CC#N)cc2c1C1CC1` [Compound 317, (1S,2R)—N-(8-amino-5-cyclopropyl-6-(4-methylpyridin-3-yl)-2,7-naphthyridin-3-yl)-2-(cyanomethyl)cyclopropanecarboxamide]: the Ki was 0.02 nM.

For the molecule `Cc1ccncc1-c1cc2cc(NC(=O)[C@H]3C[C@@H]3C(C)(C)O)ncc2c(N)n1` [Compound 242, (1S,2S)—N-[8-amino-6-(4-methylpyridin-3-yl)-2,7-naphthyridin-3-yl]-2-(2-hydroxypropan-2-yl)cyclopropane-1-carboxamide], the inhibitory constant (Ki) was 31.2 nM. Regarding `Cc1ccncc1-c1cc2cc(NC(=O)[C@H]3[C@H](C)[C@@H]3c3cnn(C)c3)ncc2c(N)n1` [Compound 327, (1S,2R,3S)—N-[8-amino-6-(4-methylpyridin-3-yl)-2,7-naphthyridin-3-yl]-2-methyl-3-(1-methyl-1H-pyrazol-4-yl)cyclopropane-1-carboxamide], the Ki was 1.43 nM.

Regarding `Cc1ccncc1-c1nc(N)c2cnc(NC(=O)[C@H]3C[C@@H]3c3cn[nH]c3)cc2c1F` [Compound 195, (1S,2S)—N-(8-amino-5-fluoro-6-(4-methylpyridin-3-yl)-2,7-naphthyridin-3-yl)-2-(1H-pyrazol-4-yl)cyclopropane-1-carboxamide], the inhibition constant Ki is 0.02 nM. Same read-out and setting: the result for `CCc1ccncc1-c1cc2cc(NC(=O)c3ccnn3C)ncc2c(N)n1` [Compound 72, 2-Methyl-2H-pyrazole-3-carboxylic acid [8-amino-6-(4-ethylpyridin-3-yl)-[2,7]naphthyridin-3-yl]amide] reads 14.1 nM; that for `CCc1ccncc1-c1cc2cc(NC(=O)OCc3ccccc3)ncc2c(N)n1` [Compound 57, Benzyl 8-amino-6-(4-ethylpyridin-3-yl)-2,7-naphthyridin-3-ylcarbamate], 5.24 nM; that for `Cn1cc([C@@H]2C[C@H]2C(=O)Nc2cc3cc(-c4c(F)cccc4F)nc(N)c3cn2)cn1` (stereo in doubt) [Compound 307, (1R,2R)—N-[8-amino-6-(2,6-difluorophenyl)-2,7-naphthyridin-3-yl]-2-(1-methyl-1H-pyrazol-4-yl)cyclopropane-1-carboxamide], 0.112 nM. For `Cn1cc(-c2cc3cc(NC(=O)[C@@H]4C[C@@H]4F)ncc3c(N)n2)cn1` [Compound 7, (1S,2S)—N-(8-amino-6-(1-methyl-1H-pyrazol-4-yl)-2,7-naphthyridin-3-yl)-2-fluorocyclopropanecarboxamide], the Ki stood at 2.89 nM. For `Cn1cc([C@H]2C[C@@H]2C(=O)Nc2cc3cc(-c4c(F)cccc4Cl)nc(N)c3cn2)cn1` [Compound 303, (1S,2S)—N-(8-amino-6-(2-chloro-6-fluorophenyl)-2,7-naphthyridin-3-yl)-2-(1-methyl-H-pyrazol-4-yl)cyclopropanecarboxamide], the Ki worked out at 0.027 nM. The same measure, in the same setting: to `Cc1ccncc1-c1nc(N)c2cnc(NC(=O)[C@@H]3C[C@H]3CC#N)cc2c1C1CC1` [Compound 316, (1R,2S)—N-(8-amino-5-cyclopropyl-6-(4-methylpyridin-3-yl)-2,7-naphthyridin-3-yl)-2-(cyanomethyl)cyclopropanecarboxamide] belongs 0.522 nM. On the same count and under the same terms, to `Cc1ccncc1-c1cc2cc(NC(=O)C3CC3(C)CO)ncc2c(N)n1` (centres unmarked) [Compound 209, N-(8-amino-6-(4-methylpyridin-3-yl)-2,7-naphthyridin-3-yl)-2-(hydroxymethyl)-2-methylcyclopropanecarboxamide] belongs 30.7 nM; to `Cc1ccncc1-c1cc2cc(Nc3cnn([C@@H]4CCN(C)C4=O)c3)ncc2c(N)n1` [Compound 249, (3R)-3-(4-[[8-amino-6-(4-methylpyridin-3-yl)-2,7-naphthyridin-3-yl]amino]-1H-pyrazol-1-yl)-1-methylpyrrolidin-2-one], 0.433 nM. On the same count and under the same terms, to `Cc1ccc(C#N)cc1-c1cc2cc(NC(=O)[C@@H]3C[C@H]3c3cnn(C)c3)ncc2c(N)n1` [Compound 300, (1R,2R)—N-[8-amino-6-(5-cyano-2-methylphenyl)-2,7-naphthyridin-3-yl]-2-(1-methyl-1H-pyrazol-4-yl)cyclopropane-1-carboxamide] belongs 1.36 nM; to `Nc1nc(-c2cnccc2CO)cc2cc(NC(=O)[C@@H]3C[C@@H]3F)ncc12` [Compound 44, (1S,2S)—N-(8-amino-6-(4-(hydroxymethyl)pyridin-3-yl)-2,7-naphthyridin-3-yl)-2-fluorocyclopropanecarboxamide], 48 nM.

On to `Cc1cc(-c2cnn(C)c2)ncc1-c1cc2cc(NC(=O)[C@H]3C[C@@H]3CC#N)ncc2c(N)n1` [Compound 238, (1S,2R)—N-(8-amino-6-(4-methyl-6-(i-methyl-H-pyrazol-4-yl)pyridin-3-yl)-2,7-naphthyridin-3-yl)-2-(cyanomethyl)cyclopropanecarboxamide], for which the Ki worked out at 1.94 nM.

For the molecule `Cc1ccncc1-c1cc2cc(NCC(F)F)ncc2c(N)n1` [Compound 338, N6-(2,2-difluoroethyl)-3-(4-methylpyridin-3-yl)-2,7-naphthyridine-1,6-diamine], the inhibition constant (Ki) amounted to 345 nM. For `N#C[C@@H]1C[C@H]1C(=O)Nc1cc2cc(-c3cnccc3-c3cn[nH]c3)nc(N)c2cn1` [Compound 235, (1R,2R)—N-(6-(4-(1H-pyrazol-4-yl)pyridin-3-yl)-8-amino-2,7-naphthyridin-3-yl)-2-cyanocyclopropanecarboxamide], the Ki amounted to 0.706 nM.

Take `CCc1ccncc1-c1cc2cc(NS(=O)(=O)C3CC3)ncc2c(N)n1` [Compound 79, Cyclopropanesulfonic acid [8-amino-6-(4-ethylpyridin-3-yl)-[2,7]naphthyridin-3-yl]amide]: the Ki was 839 nM. In the case of `Cc1ccncc1-c1cc2cc(NC(=O)[C@@H]3C[C@H]3C#N)ncc2c(N)n1` [Compound 203, (1R,2R)—N-(8-amino-6-(4-methylpyridin-3-yl)-2,7-naphthyridin-3-yl)-2-cyanocyclopropane-1-carboxamide], the Ki is 0.4 nM. Take `Cc1ccncc1-c1cc2cc(NC(=O)Nc3ccccc3C#N)ncc2c(N)n1` [Compound 171, 1-[8-amino-6-(4-methyl-3-pyridyl)-2,7-naphthyridin-3-yl]-3-(2-cyanophenyl)urea]: the Ki stood at 1500 nM. On to `COC(C)(C)[C@H]1C[C@@H]1C(=O)Nc1cc2cc(-c3cnccc3C)nc(N)c2cn1` [Compound 240, (1S,2S)—N-[8-amino-6-(4-methylpyridin-3-yl)-2,7-naphthyridin-3-yl]-2-(2-methoxypropan-2-yl)cyclopropane-1-carboxamide], for which the Ki was determined as 47 nM. `CCc1ncncc1-c1cc2cc(NC(=O)[C@@H]3C[C@@H]3F)ncc2c(N)n1` [Compound 13, (1S,2S)—N-(8-amino-6-(4-ethylpyrimidin-5-yl)-2,7-naphthyridin-3-yl)-2-fluorocyclopropanecarboxamide]: the Ki is 15.6 nM. Turning to `Cc1ccc(O)cc1-c1cc2cc(NC(=O)[C@@H]3C[C@H]3c3cnn(C)c3)ncc2c(N)n1` [Compound 287, (1R,2R)—N-[8-amino-6-(5-hydroxy-2-methylphenyl)-2,7-naphthyridin-3-yl]-2-(1-methyl-1H-pyrazol-4-yl)cyclopropane-1-carboxamide], the Ki came to 0.078 nM.

Regarding `Cc1ccncc1-c1cc2cc(Nc3cnn(C(C)(C)CO)c3)ncc2c(N)n1` [Compound 266, 2-(4-[[8-amino-6-(4-methylpyridin-3-yl)-2,7-naphthyridin-3-yl]amino]-1H-pyrazol-1-yl)-2-methylpropan-1-ol], the Ki worked out at 0.118 nM.

Staying with this experiment, now noted: Table B1-2, read-out: HPK1 Ki, L = Lanth.
With `CC1=CN(C)C(=O)Cc2nc(Nc3cc4cc(-c5cnccc5C)nc(N)c4cn3)ccc21` [Compound 418, 2-((8-amino-6-(4-methylpyridin-3-yl)-2,7-naphthyridin-3-yl)amino)-5,7-dimethyl-7,9-dihydro-8H-pyrido[2,3-d]azepin-8-one], the Ki came out at 1.4 nM.
